Numbered stars: 1 amine (or outer) side, 2 acyl side, 3 side chain; on linkers, the order of the positions; unused ones are H or OH. Bridge positions count the residues as written; N and C are the ends. Square brackets hold non-standard residues; d marks the D form. Peptide text beside a SMILES is read from it. * marks the point of attachment. C20 diacid = O=C(O)CCCCCCCCCCCCCCCCCCC(=O)*; γGlu = O=C(O)[C@H](CCC(=O)[*:2])N[*:1]; NMeI = CC[C@H](C)[C@H](NC)C(=O)O; Sar = CNCC(=O)O
Columns and labels:
[1] = Solubility assessment (turbidity absorbance at 325 nm); type: physicochemical; conditions: stock 2 mg/ml diluted 1:1, ambient temperature (typically 25°C), n=1; for Solubility, Acetate buffer pH 4: 100 mM acetate buffer pH 4.0; for Solubility, Acetate buffer pH 5: 100 mM acetate buffer pH 5.0; for Solubility, Histidine buffer pH 6: 100 mM histidine buffer pH 6.0; for Solubility, Histidine buffer pH 7: 100 mM histidine buffer pH 7.0; for Solubility, Phosphate buffer pH 6: 100 mM phosphate buffer pH 6.0; for Solubility, Phosphate buffer pH 7: 100 mM phosphate buffer pH 7.0; for Solubility, Phosphate buffer pH 7.5: 100 mM phosphate buffer pH7.5
Summary of the method: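 Stock 2 mg/ml peptide, H2O/HCl pH 2.5; 1:1 into 100 mM buffers: acetate pH 4.0/5.0, His pH 6.0/7.0, phosphate pH 6.0/7.0/7.5. A280 + A325, ~25°C, n=1. Soluble ≥ 1 mg/ml if A325 ≤ 0.02.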

[2] = molecular target: T1, human calcitonin receptor (hCTR2) (Homo sapiens, UniProt P30988); assay: hCTR2 assay: induction of cAMP (AlphaScreen cAMP Assay kit) in COS7 cells expressing hCTR2; type: cell-based
T1 construct: expressed in transfected cells
T1 sequence (P30988 25-474): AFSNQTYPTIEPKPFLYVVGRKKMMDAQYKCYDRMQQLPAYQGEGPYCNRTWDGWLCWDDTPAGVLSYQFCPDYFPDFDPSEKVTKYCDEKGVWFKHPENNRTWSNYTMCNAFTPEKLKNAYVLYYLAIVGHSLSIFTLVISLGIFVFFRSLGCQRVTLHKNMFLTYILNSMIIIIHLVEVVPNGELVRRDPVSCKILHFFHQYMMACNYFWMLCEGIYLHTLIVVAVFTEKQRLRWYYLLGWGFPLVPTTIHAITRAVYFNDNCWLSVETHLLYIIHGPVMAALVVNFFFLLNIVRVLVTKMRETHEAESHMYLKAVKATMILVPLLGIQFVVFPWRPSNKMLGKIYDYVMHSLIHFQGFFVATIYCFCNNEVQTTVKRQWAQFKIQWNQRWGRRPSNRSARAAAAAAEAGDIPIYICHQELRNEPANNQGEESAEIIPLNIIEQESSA
Summary of the method: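 Functional agonism is measured as cAMP accumulation in a COS7 line stably transfected with hCTR2, lacking endogenous RAMPs. Peptides act for 15 min at 37° C with IBMX present, and curves are fitted with a 4-parameter logistic model.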

[3] = Assessment of chemical stability: normalized purity by RP-HPLC after incubation at 40 °C; type: physicochemical; conditions: normalized purity (T=0 set to 100), 0.2 mg/ml; for Chem. stability; 7 days, 40°C pH 4: pH 4, 7 days; for Chem. stability; 7 days, 40°C pH 7.5: pH 7.5, 7 days; for Chem. stability; 7 days, 40°C pH 9: pH 9, 7 days
Experimental: Samples of each test peptide were dissolved in MilliQ™ water, and the pH of the solution was adjusted to pH 4, pH 7.5 or pH 9, respectively, using either HCI or NaOH. The final peptide concentration was 0.2 mg/ml. Samples were placed in glass vials and incubated at 40 °C. The samples were analyzed by RP-HPLC on a C8 column with gradient elution using an ammonium formate/water eluent system, or on a C18 column with gradient elution using a trifluoroacetic acid/water eluent system. The area-percentage (area-%) of the main peak after incubation time T = t (relative to time T = 0) was determined by UV spectroscopy at 220 nm.
The purity was first determined as follows: Purity(area−%) = (area of main peak/total area of all peaks) × 100. [formula]
The purity was then normalized between time points by setting purity at time 0 (T=0) to 100 for each pH value for a given peptide, as follows: Normalised area−%at time t(T = t) = [area−%(T = t)/area−%(T = 0)] × 100. [formula]
The normalized purity values in Table 2 were determined after 7 days of incubation. Table 2. EC50, chemical stability and fibrillation data for compounds of the invention

[4] = tested on: male Zucker diabetic fatty (ZDF) rats; assay: Efficacy testing: glycemic control in Zucker diabetic fatty rats; type: in vivo
Experimental: Whole-blood glucose levels were determined on tail-vein blood samples by the Biosen (EKF Diagnostic, Germany) enzyme-based electrode method. Blood samples were analyzed for glycated hemoglobin (HbA1c) using a Cobas c111 analyzer (Roche Diagnostics, Mannheim, Germany). Plasma insulin levels were measured using a Meso Scale Discovery (MSD) system (Rockville, MD, USA). Liver fat content was determined by magnetic resonance (MR) scanning using an Echo systems MR scanner. Fat depots were measured by weighing of excised fat.
84 male Zucker diabetic fatty (ZDF) rats (9-10 weeks of age) were used in this study. The animals were housed in groups of n = 2. Stratification of the animals was based on non-fasting blood glucose (primary), changes in non-fasting blood glucose measured from the arrival of the animals until one week before the initiation of the study (secondary) and body weight (tertiary). The animals were further divided into two "teams" with a pair-fed group (group 2) allocated to team 2. Animals from group 2 were pair-fed in order to compare between the contribution made by reduced food intake and by drug-induced effects on glycemic control. The amount of food eaten by the animals treated with Compound 82 (30 nmol/kg, team 1) each day was determined, and the same amount was given to a vehicle-treated pair-fed group of animals the following day.
Rats were treated for 4 weeks with Compound 82 (3, 30 and 100 nmol/kg, sc, every (ev.) 5th day), Compound 18 (30 nmol/kg sc, every 5th day), or the GLP-1 analogue liraglutide (40 nmol/kg sc, twice daily (bid)).
The effects of the compounds on glycemic control were investigated by measurement of non-fasting and fasting blood glucose levels and HbA1c levels.
Statistical analyses were performed using GraphPad™ Prism version 5. The measured parameters were compared using one- way ANOVA followed by Dunnett's multiple comparison test. Comparison between the pair-fed vehicle-treated group and the Compound 82 (30 nmol/kg) group was done using Student's two-tailed and unpaired t-test. Differences were considered statistically significant at p < 0.05.

Compound	Solubility, Acetate buffer pH 4 [1]	Solubility, Acetate buffer pH 5 [1]	Solubility, Histidine buffer pH 6 [1]	Solubility, Histidine buffer pH 7 [1]	Solubility, Phosphate buffer pH 6 [1]	Solubility, Phosphate buffer pH 7 [1]	Solubility, Phosphate buffer pH 7.5 [1]	EC50 [2] [pM]	Chem. stability; 7 days, 40°C pH 4 [3] [area-%]	Chem. stability; 7 days, 40°C pH 7.5 [3] [area-%]	Chem. stability; 7 days, 40°C pH 9 [3] [area-%]	terminal HbA1c levels ([4]; 40 nmol/kg sc twice daily (bid), 4 weeks, vehicle 8.7 ± 0.2) [%]	blood glucose lowering effect ([4]; 40 nmol/kg sc twice daily, P < 0.001)
CC[C@H](C)[C@@H](C(=O)N[C@@H](CC(C)C)C(=O)N[C@@H](CO)C(=O)N[C@@H](CO)C(=O)N[C@H](C(=O)N[C@@H](CC(N)=O)C(=O)N[C@H](C(=O)NCC(=O)N[C@@H](CO)C(=O)N[C@@H](CC(N)=O)C(=O)N[C@H](C(=O)N1CCC[C@H]1C(N)=O)[C@@H](C)O)C(C)C)[C@@H](C)O)N(C)C(=O)[C@H](C)NC(=O)CN(C)C(=O)[C@H](Cc1ccccc1)NC(=O)[C@H](CC(N)=O)NC(=O)[C@H](CC(N)=O)NC(=O)[C@H](CO)NC(=O)[C@@H](CO)NC(=O)[C@H](Cc1c[nH]cn1)NC(=O)[C@H](Cc1c[nH]cn1)NC(=O)[C@H](CC(C)C)NC(=O)[C@H](Cc1ccccc1)NC(=O)[C@H](CCC(=O)O)NC(=O)[C@H](C)NC(=O)[C@H](CC(C)C)NC(=O)[C@H](CCCNC(=N)N)NC(=O)[C@H](CCC(N)=O)NC(=O)[C@@H](NC(=O)[C@H](C)NC(=O)[C@@H]1CSSC[C@H](NC(=O)[C@H](CCCNC(=N)N)NC(=O)CC[C@H](NC(=O)CCCCCCCCCCCCCCCCCCC(=O)O)C(=O)O)C(=O)N[C@@H](CC(N)=O)C(=O)N[C@@H]([C@@H](C)O)C(=O)N[C@@H](C)C(=O)N[C@@H]([C@@H](C)O)C(=O)N1)[C@@H](C)O [Compound 29, [19CD]-isoGlu-RC()NTATC()ATQRLAEFLHH-DSer-SNNF-Gly(Me)-A-Ile(Me)-LSSTNVGSNTP-NH2] ({C20 diacid-γGlu}-RCNTATCATQRLAEFLHH[dS]SNNF[Sar]A[NMeI]LSSTNVGSNTP-NH2; disulfide 2-7)	SS (SS indicates solubility ≥ 1mg/ml)	SS (SS indicates solubility ≥ 1mg/ml)	SS (SS indicates solubility ≥ 1mg/ml)	SS (SS indicates solubility ≥ 1mg/ml)	SS (SS indicates solubility ≥ 1mg/ml)	SS (SS indicates solubility ≥ 1mg/ml)	SS (SS indicates solubility ≥ 1mg/ml)	420	100	69	53	–	–
CC[C@H](C)[C@@H](C(=O)N[C@@H](CC(C)C)C(=O)N[C@@H](CO)C(=O)N[C@@H](CO)C(=O)N[C@H](C(=O)N[C@@H](CC(N)=O)C(=O)N[C@H](C(=O)NCC(=O)N[C@@H](CO)C(=O)N[C@@H](CC(N)=O)C(=O)N[C@H](C(=O)N1CCC[C@H]1C(N)=O)[C@@H](C)O)C(C)C)[C@@H](C)O)N(C)C(=O)[C@H](C)NC(=O)CN(C)C(=O)[C@H](Cc1ccccc1)NC(=O)[C@H](CC(N)=O)NC(=O)[C@H](CC(N)=O)NC(=O)[C@@H](CO)NC(=O)[C@H](CO)NC(=O)[C@H](Cc1c[nH]cn1)NC(=O)[C@H](Cc1c[nH]cn1)NC(=O)[C@H](CC(C)C)NC(=O)[C@H](Cc1ccccc1)NC(=O)[C@H](CCC(=O)O)NC(=O)[C@H](C)NC(=O)[C@H](CC(C)C)NC(=O)[C@H](CCCNC(=N)N)NC(=O)[C@H](CCC(N)=O)NC(=O)[C@@H](NC(=O)[C@H](C)NC(=O)[C@@H]1CSSC[C@H](NC(=O)[C@H](CCCNC(=N)N)NC(=O)CC[C@H](NC(=O)CCCCCCCCCCCCCCCCCCC(=O)O)C(=O)O)C(=O)N[C@@H](CC(N)=O)C(=O)N[C@@H]([C@@H](C)O)C(=O)N[C@@H](C)C(=O)N[C@@H]([C@@H](C)O)C(=O)N1)[C@@H](C)O [Compound 31, [19CD]-isoGlu-RC()NTATC()ATQRLAEFLHHS-DSer-NNF-Gly(Me)-A-Ile(Me)-LSSTNVGSNTP-NH2] ({C20 diacid-γGlu}-RCNTATCATQRLAEFLHHS[dS]NNF[Sar]A[NMeI]LSSTNVGSNTP-NH2; disulfide 2-7)	–	–	–	–	–	–	–	–	80	66	–	–	–
CC[C@H](C)[C@@H](C(=O)N[C@@H](CC(C)C)C(=O)N[C@@H](CO)C(=O)N[C@@H](CO)C(=O)N[C@H](C(=O)N[C@@H](CC(N)=O)C(=O)N[C@H](C(=O)NCC(=O)N[C@@H](CO)C(=O)N[C@@H](CC(N)=O)C(=O)N[C@H](C(=O)N1CCC[C@H]1C(N)=O)[C@@H](C)O)C(C)C)[C@@H](C)O)N(C)C(=O)[C@H](C)NC(=O)CN(C)C(=O)[C@H](Cc1ccccc1)NC(=O)[C@H](CC(N)=O)NC(=O)[C@H](CC(N)=O)NC(=O)[C@H](CO)NC(=O)[C@H](CO)NC(=O)[C@H](CCCNC(=N)N)NC(=O)[C@H](Cc1c[nH]cn1)NC(=O)[C@H](CC(C)C)NC(=O)[C@H](Cc1ccccc1)NC(=O)[C@H](CCC(=O)O)NC(=O)[C@H](C)NC(=O)[C@H](CC(C)C)NC(=O)[C@H](CCCNC(=N)N)NC(=O)[C@H](CCC(N)=O)NC(=O)[C@@H](NC(=O)[C@H](C)NC(=O)[C@@H]1CSSC[C@H](NC(=O)[C@H](Cc2c[nH]c3ccccc23)NC(=O)CC[C@H](NC(=O)CCCCCCCCCCCCCCCCCCC(=O)O)C(=O)O)C(=O)N[C@@H](CC(N)=O)C(=O)N[C@@H]([C@@H](C)O)C(=O)N[C@@H](C)C(=O)N[C@@H]([C@@H](C)O)C(=O)N1)[C@@H](C)O [Compound 125, [19CD]-isoGlu-WC()NTATC()ATQRLAEFLHRSSNNF-Gly(Me)-A-Ile(Me)-LSSTNVGSNTP-NH2] ({C20 diacid-γGlu}-WCNTATCATQRLAEFLHRSSNNF[Sar]A[NMeI]LSSTNVGSNTP-NH2; disulfide 2-7)	SS (SS indicates solubility ≥ 1mg/ml)	SS (SS indicates solubility ≥ 1mg/ml)	SS (SS indicates solubility ≥ 1mg/ml)	SS (SS indicates solubility ≥ 1mg/ml)	II (II indicates solubility ≤ 1 mg/ml)	SS (SS indicates solubility ≥ 1mg/ml)	SS (SS indicates solubility ≥ 1mg/ml)	61	77	70	68	–	–
liraglutide [reference compound]	–	–	–	–	–	–	–	–	–	–	–	5.8 ± 0.2	significant

— EP3046573B1, “AMYLIN ANALOGUES” (Zealand Pharma A/S, priority 2013, dated 2015)
